Patent publication US20120258967A1, “PI3 KINASE INHIBITORS AND USES THEREOF” (AVILA THERAPEUTICS, INC., priority 2011, published 2012)

What follows are molecules tested against T1, PI3Kα (p110α/p85α) (Homo sapiens, UniProt P42336) (assay: HTRF assay, potency against active PI3Kα). Conditions: [ATP]=50 μM, read-out: PI3Kα Inhibition.
T1 construct: purchased BPS Bioscience or Millipore
Type: biochemical
Protocol: Compounds of the present invention are assayed as inhibitors of PI3 kinases using the following general protocol.
Homogeneous Time Resolved Fluorescence (HTRF) Assay Protocol for Potency Assessment Against the Active Forms of PI3Kα, PI3Kβ, and PI3Kγ
The protocol below describes an end-point, competition-binding HTRF assay used to measure inherent potency of test compounds against active PI3Kα (p110α/p85α), PI3Kβ (p110β/p85α), and PI3Kγ (p120γ) enzymes. The mechanics of the assay platform are best described by the vendor (Millipore, Billerica, Mass.) on their website at the following URL: www.millipore.com/coa/tech1/74jt4z.
Briefly, Stop solution (Stop A, #33-007 and Stop B, #33-009; 3:1 ratio) and Detection Mix (from DMC, #33-015 with DMA, #33-011 and DMB, #33-013; 18:1:1 ratio) were prepared as recommended by the manufacturer about 2 hrs prior to use. Additionally, 1× reaction buffer (from 4× buffer stock #33-003), 1.4× stocks of PI3Kα, PI3Kβ, and PI3Kγ enzymes from BPS Bioscience (San Diego, Calif.) or Millipore (Billerica, Mass.) with di-C8-PIP2 lipid substrate (#33-005), and a 4×ATP solution (#A7699 Sigma/Aldrich; St. Louis, Mo.) were prepared in 1× reaction buffer. 15 μL of PI3K enzymes and lipid substrate mix were pre-incubated in a Corning (#3573) 384-well, black, non-treated microtiter plate (Corning, N.Y.) for 30 min at 25° C. with a 0.5 μL volume of 50% DMSO and serially diluted compounds prepared in 50% DMSO. Lipid kinase reactions were started with the addition of 5 μL of ATP solution, mixed for 15 sec on a rotary plate shaker and incubated for 30-60 minutes at 25° C. Next, reactions were stopped with a 5 μL addition of Stop solution immediately followed by a 5 μL volume of Detection Mix. Stopped reactions were equilibrated for 1 and 18 hrs at room temperature and read in a Synergy^4 plate reader from BioTek (Winooski, Vt.) at λex 330-80/λem 620-35 and λem 665-7.5. At the conclusion of each assay, the HTRF ratio from fluorescence emission values for each well was calculated and % Inhibition determined from averaged controls wells (+/−PI3K enzyme). % Inhibition values for each compound were then plotted against inhibitor concentration to estimate IC50 from log [Inhibitor]vs Response, Variable Slope model in GraphPad Prism from GraphPad Software (San Diego, Calif.).
[Reagent] used in optimized protocol:
(ATP KMapp for both enzymes was estimated to be 40-70 μM)

T1 sequence (P42336 whole entry): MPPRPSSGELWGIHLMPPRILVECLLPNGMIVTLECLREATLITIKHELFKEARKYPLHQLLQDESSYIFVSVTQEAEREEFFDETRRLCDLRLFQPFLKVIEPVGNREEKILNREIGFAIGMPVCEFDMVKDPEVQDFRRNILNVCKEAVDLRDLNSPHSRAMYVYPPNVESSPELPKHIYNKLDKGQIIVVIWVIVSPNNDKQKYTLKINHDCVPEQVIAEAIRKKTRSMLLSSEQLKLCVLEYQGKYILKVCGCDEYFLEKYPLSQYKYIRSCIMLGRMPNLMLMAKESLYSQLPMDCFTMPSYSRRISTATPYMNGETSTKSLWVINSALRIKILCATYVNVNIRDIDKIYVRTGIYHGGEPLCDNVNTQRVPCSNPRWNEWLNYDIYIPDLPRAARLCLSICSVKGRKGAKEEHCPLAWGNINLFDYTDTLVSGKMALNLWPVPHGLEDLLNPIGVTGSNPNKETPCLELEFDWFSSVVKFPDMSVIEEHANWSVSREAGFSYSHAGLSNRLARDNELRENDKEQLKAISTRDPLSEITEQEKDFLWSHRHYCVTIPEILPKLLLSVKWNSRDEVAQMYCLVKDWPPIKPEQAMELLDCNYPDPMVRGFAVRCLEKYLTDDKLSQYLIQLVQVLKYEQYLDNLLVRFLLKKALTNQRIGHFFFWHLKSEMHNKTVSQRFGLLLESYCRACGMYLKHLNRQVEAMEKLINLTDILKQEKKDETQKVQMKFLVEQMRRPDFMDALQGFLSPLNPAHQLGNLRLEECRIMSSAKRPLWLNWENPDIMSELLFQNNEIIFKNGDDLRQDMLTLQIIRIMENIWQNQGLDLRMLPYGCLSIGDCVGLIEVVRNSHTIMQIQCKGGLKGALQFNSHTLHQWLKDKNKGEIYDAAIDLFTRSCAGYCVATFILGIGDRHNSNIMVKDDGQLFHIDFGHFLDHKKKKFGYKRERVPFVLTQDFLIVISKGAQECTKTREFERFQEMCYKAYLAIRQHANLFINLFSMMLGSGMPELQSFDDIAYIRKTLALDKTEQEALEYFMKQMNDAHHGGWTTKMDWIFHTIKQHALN
T1 sequence (P27986 whole entry partner): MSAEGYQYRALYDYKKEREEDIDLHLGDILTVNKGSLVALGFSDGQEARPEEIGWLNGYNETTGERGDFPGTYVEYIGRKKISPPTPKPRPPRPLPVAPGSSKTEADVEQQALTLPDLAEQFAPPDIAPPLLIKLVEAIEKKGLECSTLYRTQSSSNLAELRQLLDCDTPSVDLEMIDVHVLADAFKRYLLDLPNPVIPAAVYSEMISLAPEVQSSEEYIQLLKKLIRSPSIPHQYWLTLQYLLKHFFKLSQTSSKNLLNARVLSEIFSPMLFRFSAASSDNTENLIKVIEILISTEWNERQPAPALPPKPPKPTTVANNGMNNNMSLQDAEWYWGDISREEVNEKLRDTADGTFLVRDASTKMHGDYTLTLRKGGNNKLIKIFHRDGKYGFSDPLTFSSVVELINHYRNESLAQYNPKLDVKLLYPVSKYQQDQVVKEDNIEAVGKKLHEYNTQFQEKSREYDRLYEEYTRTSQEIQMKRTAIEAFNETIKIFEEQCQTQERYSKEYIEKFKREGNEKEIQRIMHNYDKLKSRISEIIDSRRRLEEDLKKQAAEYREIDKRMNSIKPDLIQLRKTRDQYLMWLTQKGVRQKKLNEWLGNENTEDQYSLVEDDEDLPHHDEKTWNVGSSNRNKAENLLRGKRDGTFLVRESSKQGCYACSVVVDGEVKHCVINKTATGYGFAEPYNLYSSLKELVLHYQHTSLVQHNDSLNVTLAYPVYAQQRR

| IC50 | Structure (SMILES) |
| --- | --- |
| 100 to 1000 nM | CC(C)=CC(=O)CCC(=O)N1CCN(c2ccc(-c3cc(-c4cnc(N)nc4)nc(N4CCOCC4)c3)cc2)CC1 [I-1, 1-(4-(4-(2-(2-aminopyrimidin-5-yl)-6-morpholinopyridin-4-yl)phenyl)piperazin-1-yl)-6-methylhept-5-ene-1,4-dione] |
| 10 to 100 nM | CC(C)=CC(=O)CCC(=O)Nc1ccc(C#Cc2cc(-c3cnc(N)nc3)nc(N3CCOCC3)c2)cc1 [I-2, N-(4-((2-(2-aminopyrimidin-5-yl)-6-morpholinopyridin-4-yl)ethynyl)phenyl)-6-methyl-4-oxohept-5-enamide] |
| 100 to 1000 nM | C/C=C/C(=O)Nc1ccc(CC(=O)N2CC=C(c3cc(-c4cnc(N)nc4)nc(N4CCOCC4)c3)CC2)cc1 [I-3] |
| 10 to 100 nM | Nc1ncc(-c2cc(C3=CCN(C(=O)Cc4ccc(NC(=O)/C=C(\C5CC5)C(F)(F)F)cc4)CC3)cc(N3CCOCC3)n2)cn1 [I-4] |
| 10 to 100 nM | Nc1ncc(-c2cc(C3=CCN(C(=O)Cc4ccc(NC(=O)/C=C(\c5ccccc5)C(F)(F)F)cc4)CC3)cc(N3CCOCC3)n2)cn1 [I-5] |
| 100 to 1000 nM | C/C(=C\C(=O)Nc1ccc(CC(=O)N2CC=C(c3cc(-c4cnc(N)nc4)nc(N4CCOCC4)c3)CC2)cc1)C(F)(F)F [I-6] |
| 100 to 1000 nM | C/C(=C/C(=O)Nc1ccc(CC(=O)N2CC=C(c3cc(-c4cnc(N)nc4)nc(N4CCOCC4)c3)CC2)cc1)C(F)(F)F [I-7] |
| 100 to 1000 nM | CC(C)/C(=C\C(=O)Nc1ccc(CC(=O)N2CC=C(c3cc(-c4cnc(N)nc4)nc(N4CCOCC4)c3)CC2)cc1)C(F)(F)F [I-8] |
| 10 to 100 nM | CC(C)/C(=C/C(=O)Nc1ccc(CC(=O)N2CC=C(c3cc(-c4cnc(N)nc4)nc(N4CCOCC4)c3)CC2)cc1)C(F)(F)F [I-9] |
| 100 to 1000 nM | C/C=C/C(=O)Nc1ccc(CC(=O)N2CCN(c3cc(-c4cnc(N)nc4)nc(N4CCOCC4)c3)CC2)cc1 [I-10] |
| 10 to 100 nM | Nc1ncc(-c2cc(N3CCN(C(=O)Cc4ccc(NC(=O)/C=C(\C5CC5)C(F)(F)F)cc4)CC3)cc(N3CCOCC3)n2)cn1 [I-11] |
| 10 to 100 nM | Nc1ncc(-c2cc(N3CCN(C(=O)Cc4ccc(NC(=O)/C=C(\c5ccccc5)C(F)(F)F)cc4)CC3)cc(N3CCOCC3)n2)cn1 [I-12] |
| 100 to 1000 nM | C/C(=C\C(=O)Nc1ccc(CC(=O)N2CCN(c3cc(-c4cnc(N)nc4)nc(N4CCOCC4)c3)CC2)cc1)C(F)(F)F [I-13] |
| 100 to 1000 nM | C/C(=C/C(=O)Nc1ccc(CC(=O)N2CCN(c3cc(-c4cnc(N)nc4)nc(N4CCOCC4)c3)CC2)cc1)C(F)(F)F [I-14] |
| 100 to 1000 nM | CC(C)/C(=C\C(=O)Nc1ccc(CC(=O)N2CCN(c3cc(-c4cnc(N)nc4)nc(N4CCOCC4)c3)CC2)cc1)C(F)(F)F [I-15] |
| 10 to 100 nM | CC(C)/C(=C/C(=O)Nc1ccc(CC(=O)N2CCN(c3cc(-c4cnc(N)nc4)nc(N4CCOCC4)c3)CC2)cc1)C(F)(F)F [I-16] |
| 10 to 100 nM | C=CC(=O)Nc1ccc2sc(N3CCN(c4cc(-c5cnc(N)nc5)nc(N5CCOCC5)c4)CC3)nc2c1 [I-17] |

Each molecule was assayed against T2, PI3Kα (Homo sapiens, UniProt P42336) (assay: Mass spectrometry for PI3K (covalent modification of intact protein, MALDI)). Conditions: not given.
T2 construct: purchased Millipore 14-602
T2 sequence (P42336 whole entry): as the sequence (P42336 whole entry) above
T2 sequence (P27986 whole entry partner): as the sequence (P27986 whole entry partner) above
Type: binding
Protocol: Mass Spectrometry for PI3K
Intact PI3Kα (Millipore, 14-602) was incubated for 1 hr at a 10-fold excess of I-11 to protein. Aliquots (5 μl) of the samples were diluted with 15 μl of 0.2% TFA prior to micro C4 ZipTipping directly onto the MALDI target using Sinapinic acid as the desorption matrix (10 mg/mL in 0.1% TFA:Acetonitrile 50:50). […] Other compounds that modify PI3Kα >50% after 1 hr include I-1, I-2, I-12, I-17, and I-19.

| covalent modification of PI3Kα by MS analysis (FIG. 1) | Structure (SMILES) |
| --- | --- |
| confirming covalent modification | Nc1ncc(-c2cc(N3CCN(C(=O)Cc4ccc(NC(=O)/C=C(\C5CC5)C(F)(F)F)cc4)CC3)cc(N3CCOCC3)n2)cn1 [I-11] |

Same assay, conditions: intact PI3Kα incubated 1 hr, 10-fold excess of compound to protein

| modification of PI3Kα | Structure (SMILES) |
| --- | --- |
| 87% | Nc1ncc(-c2cc(N3CCN(C(=O)Cc4ccc(NC(=O)/C=C(\C5CC5)C(F)(F)F)cc4)CC3)cc(N3CCOCC3)n2)cn1 [I-11] |

Same assay, conditions: intact PI3Kα incubated 1 hr, 10-fold excess of compound, MALDI centroid mass

| mass shift of PI3K after incubation with compound | Structure (SMILES) |
| --- | --- |
| 555 Da | Nc1ncc(-c2cc(N3CCN(C(=O)Cc4ccc(NC(=O)/C=C(\C5CC5)C(F)(F)F)cc4)CC3)cc(N3CCOCC3)n2)cn1 [I-11] |
